# Assays:
# MDA-MB-468 = assay: Growth inhibition of human MDA-MB-468 cells at 10 uM incubated for 48 hrs by sulforhodamine B assay relative to control; format: functional; conditions: MDA-MB-468, 48 h, read-out: GI
# NCI-H226 = assay: Growth inhibition of human NCI-H226 cells at 10 uM incubated for 48 hrs by sulforhodamine B assay relative to control; format: functional; conditions: NCI-H226, 48 h, read-out: GI
# DU-145 = assay: Growth inhibition of human DU145 cells at 10 uM incubated for 48 hrs by sulforhodamine B assay relative to control; format: functional; conditions: DU-145, 48 h, read-out: GI
# HCT-15 = assay: Growth inhibition of human HCT15 cells at 10 uM incubated for 48 hrs by sulforhodamine B assay relative to control; format: functional; conditions: HCT-15, 48 h, read-out: GI
# KM12 = assay: Growth inhibition of human KM12 cells at 10 uM incubated for 48 hrs by sulforhodamine B assay relative to control; format: functional; conditions: KM12, 48 h, read-out: GI
# UACC-62 = assay: Growth inhibition of human UACC62 cells at 10 uM incubated for 48 hrs by sulforhodamine B assay relative to control; format: functional; conditions: UACC-62, 48 h, read-out: GI
# HCT-116 = assay: Growth inhibition of human HCT116 cells at 10 uM incubated for 48 hrs by sulforhodamine B assay relative to control; format: functional; conditions: HCT-116, 48 h, read-out: GI
# A498 = assay: Growth inhibition of human A498 cells at 10 uM incubated for 48 hrs by sulforhodamine B assay relative to control; format: functional; conditions: A498, 48 h, read-out: GI
# UO-31 = assay: Growth inhibition of human UO31 cells at 10 uM incubated for 48 hrs by sulforhodamine B assay relative to control; format: functional; conditions: UO-31, 48 h, read-out: GI
# PC-3 = assay: Growth inhibition of human PC3 cells at 10 uM incubated for 48 hrs by sulforhodamine B assay relative to control; format: functional; conditions: PC-3, 48 h, read-out: GI
# MDA-MB-231 = assay: Growth inhibition of human MDA-MB-231 cells at 10 uM incubated for 48 hrs by sulforhodamine B assay relative to control; format: functional; conditions: MDA-MB-231, 48 h, read-out: GI
# MCF7 [1] = assay: Cytotoxicity against human MCF7 cells expressing VEGFR2 and wild type BRAF measured after 48 hrs by sulforhodamine B assay; format: functional, cell-based; conditions: MCF7, 48 h
# HT-29 = assay: Growth inhibition of human HT-29 cells at 10 uM incubated for 48 hrs by sulforhodamine B assay relative to control; format: functional; conditions: HT-29, 48 h, read-out: GI
# COLO 205 = assay: Growth inhibition of human COLO205 cells at 10 uM incubated for 48 hrs by sulforhodamine B assay relative to control; format: functional; conditions: COLO 205, 48 h, read-out: GI
# SF-539 = assay: Growth inhibition of human SF539 cells at 10 uM incubated for 48 hrs by sulforhodamine B assay relative to control; format: functional; conditions: SF-539, 48 h, read-out: GI
# [2] = biological target: Vascular endothelial growth factor receptor 2 (Homo sapiens, UniProt P35968); assay: Inhibition of human N-terminal GST tagged VEGFR-2 expressed in baculovirus infected Sf9 cells using poly (Glu,Tyr) 4:1 as substrate in presence of ATP by Kinase-Glo luminescence assay
# Vascular endothelial growth factor receptor 2, sequence (P35968 whole entry): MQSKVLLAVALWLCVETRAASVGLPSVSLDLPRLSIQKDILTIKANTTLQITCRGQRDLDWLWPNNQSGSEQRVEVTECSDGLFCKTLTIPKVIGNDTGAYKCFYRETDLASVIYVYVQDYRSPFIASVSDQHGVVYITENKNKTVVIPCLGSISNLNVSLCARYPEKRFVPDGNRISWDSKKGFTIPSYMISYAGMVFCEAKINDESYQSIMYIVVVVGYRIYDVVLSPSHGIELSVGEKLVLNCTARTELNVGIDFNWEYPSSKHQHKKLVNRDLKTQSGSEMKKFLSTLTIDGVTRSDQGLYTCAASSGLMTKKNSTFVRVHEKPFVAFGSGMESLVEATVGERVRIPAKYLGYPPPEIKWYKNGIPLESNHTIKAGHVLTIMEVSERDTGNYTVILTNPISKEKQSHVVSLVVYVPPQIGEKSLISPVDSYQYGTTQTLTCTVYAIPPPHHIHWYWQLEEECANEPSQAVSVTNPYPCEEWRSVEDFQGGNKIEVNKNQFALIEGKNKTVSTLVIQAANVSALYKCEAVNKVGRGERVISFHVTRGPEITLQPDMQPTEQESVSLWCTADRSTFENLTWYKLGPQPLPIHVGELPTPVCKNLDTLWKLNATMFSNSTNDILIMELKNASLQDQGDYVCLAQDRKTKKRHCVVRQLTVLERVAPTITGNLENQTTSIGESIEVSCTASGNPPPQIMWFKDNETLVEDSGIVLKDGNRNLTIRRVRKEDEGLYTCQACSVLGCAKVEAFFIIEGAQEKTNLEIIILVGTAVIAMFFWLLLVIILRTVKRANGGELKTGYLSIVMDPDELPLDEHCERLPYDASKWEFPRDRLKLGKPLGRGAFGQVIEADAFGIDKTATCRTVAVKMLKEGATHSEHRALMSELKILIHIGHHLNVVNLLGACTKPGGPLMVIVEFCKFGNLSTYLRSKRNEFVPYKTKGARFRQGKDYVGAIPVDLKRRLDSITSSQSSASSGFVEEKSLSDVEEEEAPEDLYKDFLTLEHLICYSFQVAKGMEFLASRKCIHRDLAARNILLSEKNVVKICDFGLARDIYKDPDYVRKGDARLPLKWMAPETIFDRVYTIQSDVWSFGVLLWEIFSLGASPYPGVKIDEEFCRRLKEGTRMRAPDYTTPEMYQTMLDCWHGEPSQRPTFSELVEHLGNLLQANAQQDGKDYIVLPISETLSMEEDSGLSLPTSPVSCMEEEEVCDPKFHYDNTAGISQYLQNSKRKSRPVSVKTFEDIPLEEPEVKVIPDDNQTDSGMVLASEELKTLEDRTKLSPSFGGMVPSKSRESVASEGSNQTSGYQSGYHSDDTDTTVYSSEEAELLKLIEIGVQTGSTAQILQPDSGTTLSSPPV
# SK-OV-3 = assay: Growth inhibition of human SKOV3 cells at 10 uM incubated for 48 hrs by sulforhodamine B assay relative to control; format: functional; conditions: SK-OV-3, 48 h, read-out: GI
# SW-620 = assay: Growth inhibition of human SW620 cells at 10 uM incubated for 48 hrs by sulforhodamine B assay relative to control; format: functional; conditions: SW-620, 48 h, read-out: GI
# K562 = assay: Growth inhibition of human K562 cells at 10 uM incubated for 48 hrs by sulforhodamine B assay relative to control; format: functional; conditions: K562, 48 h, read-out: GI
# SR = assay: Growth inhibition of human SR cells at 10 uM incubated for 48 hrs by sulforhodamine B assay relative to control; format: functional; conditions: read-out: GI
# IGROV-1 = assay: Growth inhibition of human IGROV1 cells at 10 uM incubated for 48 hrs by sulforhodamine B assay relative to control; format: functional; conditions: IGROV-1, 48 h, read-out: GI
# NCI-H522 = assay: Growth inhibition of human NCI-H522 cells at 10 uM incubated for 48 hrs by sulforhodamine B assay relative to control; format: functional; conditions: NCI-H522, 48 h, read-out: GI
# CCRF-CEM = assay: Growth inhibition of human CCRF-CEM cells at 10 uM incubated for 48 hrs by sulforhodamine B assay relative to control; format: functional; conditions: read-out: GI
# Malme-3M = assay: Growth inhibition of human MALME-3M cells at 10 uM incubated for 48 hrs by sulforhodamine B assay relative to control; format: functional; conditions: read-out: GI
# CAKI-1 = assay: Growth inhibition of human Caki1 cells at 10 uM incubated for 48 hrs by sulforhodamine B assay relative to control; format: functional; conditions: CAKI-1, 48 h, read-out: GI
# HOP-62 = assay: Growth inhibition of human HOP62 cells at 10 uM incubated for 48 hrs by sulforhodamine B assay relative to control; format: functional; conditions: HOP-62, 48 h, read-out: GI
# NCI-H23 = assay: Growth inhibition of human NCI-H23 cells at 10 uM incubated for 48 hrs by sulforhodamine B assay relative to control; format: functional; conditions: NCI-H23, 48 h, read-out: GI
# SN12C = assay: Growth inhibition of human SN12C cells at 10 uM incubated for 48 hrs by sulforhodamine B assay relative to control; format: functional; conditions: read-out: GI
# RPMI-8226 = assay: Growth inhibition of human RPMI8226 cells at 10 uM incubated for 48 hrs by sulforhodamine B assay relative to control; format: functional; conditions: RPMI-8226, 48 h, read-out: GI
# A549 = assay: Growth inhibition of human A549/ATCC cells at 10 uM incubated for 48 hrs by sulforhodamine B assay relative to control; format: functional; conditions: A549, 48 h, read-out: GI
# [3] = biological target: Serine/threonine-protein kinase B-raf (Homo sapiens, UniProt P15056); assay: Inhibition of human wild type BRAF by Kinase-Glo luminescence assay
# Serine/threonine-protein kinase B-raf, sequence (P15056 whole entry): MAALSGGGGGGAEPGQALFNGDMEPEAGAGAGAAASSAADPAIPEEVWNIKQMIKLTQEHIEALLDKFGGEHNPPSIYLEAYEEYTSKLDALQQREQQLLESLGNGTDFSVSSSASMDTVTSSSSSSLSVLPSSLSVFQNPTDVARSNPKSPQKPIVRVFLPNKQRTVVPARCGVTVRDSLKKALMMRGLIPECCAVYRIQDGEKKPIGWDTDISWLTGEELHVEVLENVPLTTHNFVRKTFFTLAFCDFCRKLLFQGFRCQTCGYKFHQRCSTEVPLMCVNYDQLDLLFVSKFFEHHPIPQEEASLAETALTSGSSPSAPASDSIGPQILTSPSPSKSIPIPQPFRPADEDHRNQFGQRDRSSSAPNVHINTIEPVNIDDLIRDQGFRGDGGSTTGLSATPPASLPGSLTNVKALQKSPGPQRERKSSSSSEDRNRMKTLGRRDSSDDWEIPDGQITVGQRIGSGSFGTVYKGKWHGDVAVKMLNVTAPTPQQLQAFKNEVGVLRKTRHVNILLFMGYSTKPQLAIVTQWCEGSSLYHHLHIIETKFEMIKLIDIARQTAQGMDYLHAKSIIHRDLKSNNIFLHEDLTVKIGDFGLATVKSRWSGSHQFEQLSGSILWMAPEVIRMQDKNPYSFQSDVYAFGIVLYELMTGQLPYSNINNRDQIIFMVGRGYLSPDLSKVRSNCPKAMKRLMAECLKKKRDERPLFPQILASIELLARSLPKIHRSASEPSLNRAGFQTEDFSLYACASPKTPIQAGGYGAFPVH
# HOP-92 = assay: Growth inhibition of human HOP92 cells at 10 uM incubated for 48 hrs by sulforhodamine B assay relative to control; format: functional; conditions: HOP-92, 48 h, read-out: GI
# T47D [4] = assay: Growth inhibition of human T47D cells at 10 uM incubated for 48 hrs by sulforhodamine B assay relative to control; format: functional; conditions: read-out: GI
# ACHN = assay: Growth inhibition of human ACHN cells at 10 uM incubated for 48 hrs by sulforhodamine B assay relative to control; format: functional; conditions: read-out: GI
# Hs-578T = assay: Growth inhibition of human Hs578T cells at 10 uM incubated for 48 hrs by sulforhodamine B assay relative to control; format: functional; conditions: read-out: GI
# MCF7 [5] = assay: Growth inhibition of human MCF7 cells at 10 uM incubated for 48 hrs by sulforhodamine B assay relative to control; format: functional; conditions: MCF7, 48 h, read-out: GI
# MCF7 [6] = assay: Inhibition of VEGFR2 level in human MCF7 cells at 10 uM measured after 48 hrs by ELISA relative to control; format: functional; conditions: MCF7, 48 h
# EKVX = assay: Growth inhibition of human EKVX cells at 10 uM incubated for 48 hrs by sulforhodamine B assay relative to control; format: functional; conditions: read-out: GI
# MOLT-4 = assay: Growth inhibition of human MOLT4 cells at 10 uM incubated for 48 hrs by sulforhodamine B assay relative to control; format: functional; conditions: MOLT-4, 48 h, read-out: GI
# NCI/ADR-RES = assay: Growth inhibition of human NCI/ADR-RES cells at 10 uM incubated for 48 hrs by sulforhodamine B assay relative to control; format: functional; conditions: read-out: GI
# T47D [7] = assay: Cytotoxicity against human T47D cells expressing wild type BRAF measured after 48 hrs by sulforhodamine B assay; format: functional, cell-based
# OVCAR-5 = assay: Growth inhibition of human OVCAR5 cells at 10 uM incubated for 48 hrs by sulforhodamine B assay relative to control; format: functional; conditions: OVCAR-5, 48 h, read-out: GI
# OVCAR-4 = assay: Growth inhibition of human OVCAR4 cells at 10 uM incubated for 48 hrs by sulforhodamine B assay relative to control; format: functional; conditions: OVCAR-4, 48 h, read-out: GI
SMILES,inhibition of growth at 10 µM (MDA-MB-468),inhibition of growth at 10 µM (NCI-H226),inhibition of growth at 10 µM (HCT-15),inhibition of growth at 10 µM (UACC-62),inhibition of growth at 10 µM (HCT-116),inhibition of growth at 10 µM (A498),inhibition of growth at 10 µM (UO-31),inhibition of growth at 10 µM (PC-3),inhibition of growth at 10 µM (MDA-MB-231),IC50 (MCF7 [1]),inhibition of growth at 10 µM (SF-539),IC50 [2],inhibition of growth at 10 µM (SK-OV-3),inhibition of growth at 10 µM (K562),inhibition of growth at 10 µM (IGROV-1),inhibition of growth at 10 µM (NCI-H522),inhibition of growth at 10 µM (CCRF-CEM),inhibition of growth at 10 µM (Malme-3M),inhibition of growth at 10 µM (CAKI-1),inhibition of growth at 10 µM (HOP-62),further results
CC(=O)c1ccc(Nc2ccnc(SCC(=O)c3ccc(-c4ccccc4)cc3)n2)cc1,13%,11%,13%,20%,42%,55%,27%,19%,22%,66.1 µM,13%,0.28 µM,11%,10%,14%,22%,22%,14%,16%,13%,inhibition of growth at 10 µM (DU-145): 16%; inhibition of growth at 10 µM (KM12): 24%; inhibition of growth at 10 µM (HT-29): 16%; inhibition of growth at 10 µM (COLO 205): 11%; inhibition of growth at 10 µM (SW-620): 26%; inhibition of growth at 10 µM (SR): 41%; inhibition of growth at 10 µM (NCI-H23): 10%; inhibition of growth at 10 µM (SN12C): 11%; inhibition of growth at 10 µM (RPMI-8226): 26%; inhibition of growth at 10 µM (A549): 20%; IC50 [3]: 1.05 µM; inhibition of growth at 10 µM (HOP-92): 21%; inhibition of growth at 10 µM (T47D [4]): 29%; inhibition of growth at 10 µM (ACHN): 26%
CC(=O)c1cccc(Nc2ccnc(SCC(=O)c3ccc(-c4ccccc4)cc3)n2)c1,14%,22%,15%,24%,14%,40%,40%,25%,41%,24.4 µM,11%,0.74 µM,22%,16%,20%,38%,28%,17%,23%,19%,inhibition of growth at 10 µM (Hs-578T): 14%; inhibition of growth at 10 µM (MCF7 [5]): 12%; inhibition at 10 µM (MCF7 [6]): 36%; inhibition of growth at 10 µM (EKVX): 15%; inhibition of growth at 10 µM (MOLT-4): 29%; inhibition of growth at 10 µM (NCI/ADR-RES): 14%; IC50 (T47D [7]): 12.1 µM; inhibition of growth at 10 µM (OVCAR-5): 12%; inhibition of growth at 10 µM (OVCAR-4): 12%; inhibition of growth at 10 µM (NCI-H23): 18%; inhibition of growth at 10 µM (SN12C): 13%; inhibition of growth at 10 µM (RPMI-8226): 34%; inhibition of growth at 10 µM (A549): 14%; inhibition of growth at 10 µM (HOP-92): 17%; inhibition of growth at 10 µM (T47D [4]): 49%; inhibition of growth at 10 µM (ACHN): 12%

# From ChEMBL document CHEMBL4396916, “Novel potent substituted 4-amino-2-thiopyrimidines as dual VEGFR-2 and BRAF kinase inhibitors” (Eur J Med Chem, 2019)
